In patent US10981953B2, “Method for promoting expression of calreticulin, and synthetic peptide for use in method for promoting expression of calreticulin” (TOAGOSEI CO., LTD., priority 2013, dated 2021):

Legend:
[1] = test system: BXM14 cells, a cultured cell line of mouse ES cells; test: Calreticulin expression-promoting activity in ES cells, immunofluorescent antibody technique (Example 4); type: cell-based; details: mouse ES cells BXM14, peptide 50 μM, 3 days culture, confocal laser microscopy
Method: The calreticulin expression-promoting activity of the Samples 1 to 12 obtained in Example 1 was investigated. BXM14 cells, a cultured cell line of mouse ES cells (hereunder sometimes called “BXM14”), were used as the test cells. The details of the evaluation test were as follows.
The sample ES cells (BXM14) were seeded to a cell density of about 1×10^4 cells per well on 4-well slides. Using DMEM medium (Wako Pure Chemical, Cat No. 043-30085) containing 15% Knockout™ Serum Replacement (hereunder sometimes called “KSR”; Life Technologies, Cat No. 10828), 0.1 mM Non-essential Amino Acids Solution (hereunder sometimes called “NEAA”; Wako Pure Chemical, Cat No. 139-15651), 0.1 mM 2-mercaptoethanol (Sigma-Aldrich, Cat No. M7522) and 1000 units/mL of StemSure™ LIF, Mouse, recombinant, Solution (hereunder sometimes called “mLIF”; Wako Pure Chemical, Cat No. 199-116051), the cells were cultured overnight in an incubator under conditions of 5% CO2, 37° C. The DMEM medium containing KSR, NEAA, 2-mercaptoethanol and mLIF is also called simply “ES DMEM medium”. […]
(§1) These figures (images) are fluorescence micrographs examining calreticulin expression in each test group, and each combines (merges) a fluorescent image showing results for calreticulin expression in ES cells as measured by the immunofluorescent antibody technique with an image showing nuclear staining by DAPI.

[2] = test system: iPS cells (clone name 201B2); test: Calreticulin expression-promoting activity in iPS cells, immunofluorescent antibody technique (Example 3); type: cell-based; details: human iPS cells 201B2, peptide 10 μM, 5 days culture, confocal laser microscopy
Method: The calreticulin expression-promoting activity of the Samples 1 to 12 obtained in Example 1 was investigated. iPS cells (clone name 201B2, sometimes called simply 201B2 below) established from human fibroblasts were used as the test cells (source: Takahashi K et al., Cell, 131, 861-872 (2007)). These iPS cells were supplied by the Center for iPS Cell Research and Application, Kyoto University.
The test iPS cells (201B2) were seeded to a cell density of about 1×10^4 cells per well on matrigel-coated 8-well slides. Using mTeSR™ 1 medium (Stemcell Technologies) as the medium, the cells were cultured overnight in an incubator under conditions of 5% CO2, 37° C. Following this overnight culture, fresh mTeSR™ medium containing the peptides of Samples 1 to 12 in an amount yielding a peptide concentration of 10 μM was substituted, and the cells were further cultured for 5 days under the same conditions. Every day during this 5-day culture period, the medium was replaced with mTeSR™ 1 medium containing the peptides of Samples 1 to 12 in an amount yielding a peptide concentration of 10 μM. A peptide-free group was established as a control.
After completion of this culture, calreticulin expression in each test group was investigated by the immunofluorescent antibody technique (fluorescent immunostaining) using an anti-calreticulin antibody as in Example 2 except that a mixed solution of 1 vol. methanol and 1 vol. acetone (methanol:acetone=1:1 solution) was used to fix the cells, and the final concentration of the primary antibody was adjusted to 4×10^−3 mg/mL.
as §1, with “figures” for “figures (images)”, “iPS” for “ES”

[3] = test system: HeLaS3 cells; test: Calreticulin expression-promoting activity in tumor cells, immunofluorescent antibody technique (Example 2); type: cell-based, human; details: peptide 10 μM, 5 days culture, confocal laser microscopy
From the text: The calreticulin expression-promoting activity of the peptides of the Samples 1 to 12 obtained in Example 1 above was investigated. The sample cells were HeLaS3 cells (ATCC CCL2.2), a cultured cell line derived from human cervical cancer. These HeLaS3 cells (ATCC CCL2.2) are known as a genomically unstable cultured cell line, which has been confirmed to have multiple chromosome duplications or in other words chromosomal abnormalities (karyotypic abnormalities). The details of the evaluation test are as follows.
HeLaS3 cells were seeded on 8-well slides to a cell density of about 1×10^3 cells per well. […]
A diluted primary antibody solution comprising an anti-calreticulin monoclonal [FMC75] antibody (from mouse, Abcam, Cat. No. ab22683, Lot No. GR56669-4) as the primary antibody prepared with 1% BSA/PBS (−) (PBS (−) containing 1% BSA) to a final concentration of 2.5×10^−3 mg/mL was added to the culture containers of the HeLaS3 cells, and left overnight at 4° C. […] This was then sealed with a cover glass together with an enclosed liquid containing DAPI (4′,6-diamidino-2-phenylindole) (Life Technologies), and fluorescence was observed by confocal laser microscopy. […]

Sequence | fluorescence of the fluorescent label indicating calreticulin (expressed amount of calreticulin) compared with the peptide-free group and Sample 12 [2] | further results
CRAKAGDPC [Sample 1] | – | fluorescence of the fluorescent label indicating calreticulin (amount of calreticulin expression) compared with the peptide-free group and Sample 12 [1]: stronger fluorescence
KKRTLRKNDRKKR CRAKAGDPC (KKRTLRKNDRKKRCRAKAGDPC) [Sample 9] | stronger fluorescence | –
KKRTLRKNDRKKR GPRPPSLEC (KKRTLRKNDRKKRGPRPPSLEC) [Sample 11] | strong fluorescence | –
KKRTLRKNDRKKR NPGASF (KKRTLRKNDRKKRNPGASF) [Sample 10] | strong fluorescence | –
LAARAVRFSEKV [Sample 12] | – | fluorescence of the fluorescent label indicating calreticulin (expressed amount of calreticulin) compared with the peptide-free group [3]: almost no fluorescence was detected
